SMILES strings stand for the structures. “And” between values parts separate entries of the source, which are not always exact repeats. Identical values can stand only once.

For test [1], the system named is S. cerevisiae JAY 270. Put plainly: Continuous two-column immobilized cell bioreactor in YPD medium. It is filed as cell-based, Saccharomyces cerevisiae. Conditions: Phase 2, 0.2% PheOH in feed. From the text: The immobilized cell reactor system consisted of two glass cylindrical columns, a vessel with agitation containing fermentation medium (controlled temperature, pH, and dissolved oxygen), and a pump for delivery of the feed to the column. The glass column had dimensions of OD=32, ID=29, and L=160 mm; screens were placed above and below the alginate bead layer to retain the cells in the column. YPD medium with 0.6 g/L CaCl2·2H2O was used in the continuous fermentation. Two columns (a well-mixed reactor column and a packed-bed column) were used in this test (FIG. 5). The total volume of immobilized cells used to fill the column was […] and the medium volume was 20 mL in each column. The total medium volume in the system was 60 mL, including the medium in both columns and in the vessel. The flow rate of fresh medium was 2.3 mL/min.
The system was first fed with YPD medium for 20 hours to activate the immobilized cells. After 20 hours, samples were collected at different times points over 24 hours from both Column 1 (well-mixed reactor) and the entire system. Then YPD medium containing 0.2% PheOH was used to replace the YPD medium for another 26 hours. After that, the medium was changed back to YPD medium for 6 hours. The content of glucose and ethanol in samples was analyzed using HPLC.
Owing to the limited supply of algal hydrolysate, the test was conducted using YPD medium. The test was conducted with 0.2% PheOH as the growth inhibitor. For 20 hours prior to the start of the experiment, the system was fed YPD medium without PheOH to ensure that the cells were fully active following their immobilization. The experiment was then conducted with three phases: • (1) 24 hours, during which the feed was YPD medium without PheOH. The start of this phase represented time zero of the experiment. • (2) 26 hours, during which the feed was YPD medium with 0.2% PheOH. • (3) 6 hours, during which the feed was YPD medium without PheOH.

For another test, the system named is S. cerevisiae JAY270. Description: Immobilized yeast cells, batch cultivation on D. armatus hydrolysate. Conditions: 0.2%; for EtOH yield / EtOH yield % Δ from control: 24 hours. It is filed as cell-based, Saccharomyces cerevisiae. As for the experimental part:
S. cerevisae JAY270 cells were precultured in 600 mL YPD medium at 30° C. overnight and collected by centrifuging at 3000×g for 10 min at 4° C. The cell pellets were washed twice by resuspending in 0.8% NaCl and centrifuged to remove any medium residue. Then, the cells were resuspended in 50 mL 0.8% NaCl and mixed with the 4% sodium alginate solution to obtain the final sodium alginate concentration of 3%. The mixture was dropped with a syringe aseptically into sterilized 2% CaCl2·2H2O on ice to form spheres (“beads”). The cell-immobilized beads were kept in the CaCl2) solution at 4° C. until use.
The immobilized cells were incubated in YPD medium with 20 g/L glucose overnight at 30° C. to activate the immobilized cells. For each replicate test, 25 mL of D. armatus hydrolysate obtained from NREL was mixed with 15 mL beads and transferred into a 50 mL serum bottle. All serum bottles were incubated in a shaker at 150 rpm and 30° C. Samples were collected at 0, 12, and 24 h. The concentrations of sugars and ethanol in the samples were analyzed by HPLC.
To test the effects of yield-increasing chemicals on the immobilized cells fermentation, 0.2% PheOH or TrpOH was added in the D. armatus hydrolysate obtained from NREL in serum bottles respectively (batch growth). PheOH was directly added into the hydrolysate medium. TrpOH was dissolved in DMSO at 20%, then added into the hydrolysate to achieve the desired final concentration. The same amount of DMSO was added into the control cultivations. S. cerevisae JAY270 cells were immobilized in calcium alginate. The immobilized cell beads were incubated in YPD medium overnight at 30° C. to activate the immobilized cells. Twenty-five mL of D. armatus hydrolysate was mixed with 15 mL immobilized cell beads (three biological replicates in each treatment) and incubated at 30° C. The ethanol yield was calculated at 24 hours. The content of glucose and ethanol in samples was analyzed using HPLC.

The test system of test [2] is S. cerevisiae JAY 270. Description: 1-L batch bioreactor fermentation, time course. The class given is cell-based, Saccharomyces cerevisiae. Conditions: for Biomass Yield / Biomass yield % change vs. control / EtOH yield / EtOH yield % change vs. control / Glycerol yield / Glycerol yield % change vs. control: 1-L bioreactor, 24 hours; for Biomass yield, lower in comparison to control: addition in the fermentation medium. The procedure: Yeast strain: S. cerevisiae JAY 270, as in Example 1. Inocula for bioreactor experiments with PheOH and TrpOH S. cerevisiae JAY 270 were prepared by culturing the yeast in 100 mL of YPD medium in 200-mL serum bottles overnight in a shaker at 30° C. and 200 rpm. The cells were collected by centrifuging 10 min at 4000×g and 4° C. The cell pellet was washed twice using sterile 0.8% (w/v) NaCl solution. Finally, the cell pellet was resuspended in about 15 mL of 0.8% (w/v) NaCl.
Procedure: Fermentations were carried out in two Eppendorf BioFlo 115 bioreactors containing 1 L sterile YNB medium with 20 g/L glucose (Difco Yeast Nitrogen Base, catalog number 239210). The prepared yeast cells were inoculated in the bioreactor vessels to obtain an initial yeast cell concentration of OD600≈0.1. The fermentation was conducted at pH 5.5, 30° C., and 200 rpm agitation. Ultrapure N2 was sparged at 0.1 standard liters per minute in the bioreactor vessels to maintain anaerobic conditions. Samples were collected at different time points to monitor cell, glucose, and ethanol concentrations.
(§1) For experiments with added PheOH, 2.0 mL of PheOH stock solution was added to one of the two vessels when the OD600 reached 1.0 to achieve a final concentration of 0.2% (w/v). In the serum bottle tests, TrpOH had stronger effects on yeast cell growth than PheOH at the same tested concentration. A study in serum bottles was then conducted to determine the TrpOH concentration that would have a similar growth inhibitory effect. […] Thus, for bioreactor experiments on the effects of TrpOH, the TrpOH was added at 0.12%. Since TrpOH was dissolved in DMSO, the same concentration of DMSO was added in the control bioreactor at the same time. All other bioreactor conditions were the same as in the PheOH test.
Samples were collected from the bioreactors every hour post-addition for 6 h, and again after 24 hours of cultivation. Each experiment was repeated in triplicate.

For a further test, the system named is yeast cell growth. Description: Serum-bottle study of the TrpOH concentration with similar growth inhibition as PheOH. The class given is cell-based. Conditions: serum bottles, data not shown. The procedure:
as §1

`OCCc1ccccc1` [PheOH, 2-phenylethanol]: in the test on S. cerevisiae JAY 270 [1] (C1), the Ethanol productivity came out at 21 g/L·h and the Ethanol yield result is reported as “about 0.45”. Besides, in the test with S. cerevisiae JAY 270 [1] (C1+C2), the Ethanol yield is roughly 0.43 and the Glucose conversion was found to be 91%. The same compound had a Glucose conversion in the test with S. cerevisiae JAY 270 [1] (after C1) of 60%. For the same compound, in the test with S. cerevisiae JAY 270 [1] (whole system), the Ethanol productivity was 21 g/L·h. Also, in the test on S. cerevisiae JAY270 (D. armatus hydrolysate, batch), the EtOH yield is recorded as 0.46 g/g and the “EtOH yield % Δ from control” value was 1.54%. Moreover, the “Glycerol concentration, decrease” value in the test on S. cerevisiae JAY 270 [2] (PheOH 0.2%) is listed as 21%. Moreover, in the test with S. cerevisiae JAY 270 [2] (PheOH 0.2% (w/v)), the Biomass Yield was found to be 0.063 ± 0.008 g/g, the “Biomass yield % change vs. control” value is given as −23 ± 5 %, the EtOH yield is given as 0.435 ± 0.003 g/g and the “EtOH yield % change vs. control” value turned out to be 5.3 ± 0.8 %. Moreover, in the test on S. cerevisiae JAY 270 [2] (PheOH 0.2% (w/v)), the Glycerol yield came out at 0.071 ± 0.001 g/g and the “Glycerol yield % change vs. control” value was −20 ± 2 %. In addition, the “EtOH yield % change vs. control” value in the test with S. cerevisiae JAY 270 [2] (PheOH 0.2% (w/v), listed as 2-phenylethanol) was 6%. Further, the “Final cell concentration, lower than control” value in the test with S. cerevisiae JAY 270 [2] (PheOH 0.2%, 24 h) is given as 22%. For the same compound, the Glucose remaining result in the test on S. cerevisiae JAY 270 [2] (PheOH 0.2%, after 12 h (control completely consumed)) is listed as “about 2 g/L”. In addition, the “Biomass yield, lower in comparison to control” value with S. cerevisiae JAY 270 [2] was “about 20%”.
For `OCCc1c[nH]c2ccccc12` [TrpOH, tryptophol], the “Ethanol yield higher than the value for free cell fermentation of D. armatus hydrolysate” value in the test with S. cerevisiae JAY270 is given as “about 20%”. Moreover, in the test with S. cerevisiae JAY270 (D. armatus hydrolysate, batch), the Ethanol yield is on record as 0.49 g ethanol/g sugar; the EtOH yield stood at 0.49 g/g; the “EtOH yield % Δ from control” value was 11.4% and 11.42%. In addition, in the test on S. cerevisiae JAY 270 [2] (TrpOH 0.12% (w/v)), the Biomass Yield was found to be 0.063 ± 0.008 g/g, the “Biomass yield % change vs. control” value is −28 ± 5 %, the EtOH yield was 0.420 ± 0.012 g/g and the “EtOH yield % change vs. control” value stood at 6.5 ± 3.1 %. For the same compound, in the test with S. cerevisiae JAY 270 [2] (TrpOH 0.12% (w/v)), the Glycerol yield was 0.070 ± 0.004 g/g and the “Glycerol yield % change vs. control” value is reported as −17 ± 2 %. For the same compound, in the test on S. cerevisiae JAY 270 [2] (TrpOH 0.12% (w/v), listed as tryptophol), the “EtOH yield % change vs. control” value is given as 10%. Moreover, in the test with S. cerevisiae JAY 270 [2] (TrpOH 0.12%, 24 h), the “Final cell concentration, lower than control” value is listed as “about 22%” and the “Glycerol concentration, lower than control” value is 17%. Further, the “Final cell concentration, lower than control” value in the test on S. cerevisiae JAY 270 [2] (TrpOH 0.12%, 24 h, listed as tryptophol) was found to be 22%. In addition, the “Biomass yield, lower in comparison to control” value with S. cerevisiae JAY 270 [2] is listed as “about 20%”. Moreover, in the test with yeast cell growth, the “Concentration with similar growth inhibition as PheOH at 16.4 mM” value came out at 7.5 mM and the “Concentration with similar growth inhibition as PheOH at 0.2% (w/v)” value was 0.12 % (w/v).

(Values after patent US11827917B1, “Methods for the conversion of fermentable sugars to ethanol” (Colorado State University Research Foundation, priority 2020, dated 2023).)
